Reference: ChEMBL document CHEMBL2424577, “Cytotoxicity and DNA-binding property of water-soluble naphthalene diimide derivatives bearing 2-oligoethoxy ethanamine side chain end-labeled with tertiary amino groups” (Med Chem Res, 2013)
The source made the active and inactive calls. The rule behind the calls is not given here.

Experiments:
[1] = tested on: HeLa; assay: Antiproliferative activity against human HeLa cells after 48 hrs by MTT assay; assay type: functional, cell-based
[2] = tested on: A549; assay: Antiproliferative activity against human A549 cells after 48 hrs by MTT assay; assay type: functional, cell-based; details: A549, 48 h
[3] = tested on: K562; assay: Antiproliferative activity against human K562 cells after 48 hrs by MTT assay; assay type: functional, cell-based; details: K562, 48 h
[4] = Binding affinity to G-quadruplex DNA (unknown origin) in phosphate buffer at pH 7.4 at 5 x 10 '-5 M by Uv-Vis spectroscopy
[5] = tested on: DNA; assay: Binding affinity to calf thymus DNA in phosphate buffer at pH 7.4 assessed as hypochromicity at 5 x 10 '-5 M by Uv-Vis spectroscopy; assay type: nucleic-acid assay; details: Bos taurus
[6] = tested on: DNA; assay: Binding affinity to calf thymus DNA in phosphate buffer at pH 7.4 at 5 x 10 '-5 M by fluorescence spectroscopy; assay type: nucleic-acid assay; details: Bos taurus
[7] = Binding affinity to G-quadruplex DNA (unknown origin) in phosphate buffer at pH 7.4 at 5 x 10 '-5 M by fluorescence spectroscopy
[8] = tested on: DNA; assay: Binding affinity to calf thymus DNA in phosphate buffer at pH 7.4 at 5 x 10 '-5 M by Uv-Vis spectroscopy; assay type: nucleic-acid assay; details: Bos taurus
[9] = Binding affinity to G-quadruplex DNA (unknown origin) in phosphate buffer at pH 7.4 assessed as hypochromicity at 5 x 10 '-5 M by Uv-Vis spectroscopy
[10] = tested on: DNA; assay: Binding affinity to calf thymus DNA in phosphate buffer at pH 7.4 at 2 x 10 '-5 M by CD spectra analysis; assay type: nucleic-acid assay; details: Bos taurus
[11] = Binding affinity to G-quadruplex DNA (unknown origin) in phosphate buffer at pH 7.4 at 2 x 10 '-5 M by CD spectra analysis

Row | Compound | IC50 [1] [nM] | IC50 [2] [nM] | IC50 [3] [nM] | Kb [4] | Activity [5] [%] | K [6] | K [7] | Kb [8] | Activity [9] [%] | Activity [10] | Activity [11]
1 | CN(C)CCN1C(=O)c2ccc3c4c(c(NCCOCCN5CCN(C)CC5)cc(c24)C1=O)C(=O)N(CCN(C)C)C3=O | 5190 | 2940 | 3030 | – | – | – | – | – | – | – | –
2 | CN(C)CCN1C(=O)c2ccc3c4c(c(NCCOCCOCCOCCN5CCCCC5)cc(c24)C1=O)C(=O)N(CCN(C)C)C3=O | 4060 | 6870 | 2940 | – | – | – | – | – | – | – | –
3 | CN(C)CCN1C(=O)c2ccc3c4c(c(NCCOCCN5CCCCC5)cc(c24)C1=O)C(=O)N(CCN(C)C)C3=O | 2080 | 2190 | 610 | – | – | – | – | – | – | – | –
4 | CN(C)CCN1C(=O)c2ccc3c4c(c(NCCOCCN5CCCC5)cc(c24)C1=O)C(=O)N(CCN(C)C)C3=O | 2150 | 2030 | 590 | – | – | – | – | – | – | – | –
5 | CN(C)CCN1C(=O)c2ccc3c4c(c(NCCOCCOCCOCCN5CCN(C)CC5)cc(c24)C1=O)C(=O)N(CCN(C)C)C3=O | 2880 | 7420 | 3630 | – | – | – | – | – | – | – | –

Further lines, results first:

Row | IC50 [1] [nM] | IC50 [2] [nM] | IC50 [3] [nM] | Kb [4] | Activity [5] [%] | K [6] | K [7] | Kb [8] | Activity [9] [%] | Activity [10] | Activity [11] | Compound
6 | 3800 | 2530 | 5790 | 1.5 ×10⁴ /M | 25 | 3.8 ×10⁵ /M | 1.5 ×10⁴ /M | 2.3 ×10⁵ /M | 9 | Active | Active | CN(C)CCN1C(=O)c2ccc3c4c(c(NCCOCCOCCOCCN5CCOCC5)cc(c24)C1=O)C(=O)N(CCN(C)C)C3=O
7 | 5170 | 7120 | 7100 | – | – | – | – | – | – | – | – | CN(C)CCN1C(=O)c2ccc3c4c(c(NCCOCCOCCOCCN5CCCC5)cc(c24)C1=O)C(=O)N(CCN(C)C)C3=O
8 | 5950 | 2930 | 1240 | – | – | – | – | – | – | – | – | CN(C)CCN1C(=O)c2ccc3c4c(c(NCCOCCOCCN5CCCCC5)cc(c24)C1=O)C(=O)N(CCN(C)C)C3=O
9 | 2610 | 2950 | 670 | 2.8 ×10⁵ /M | 31 | 3.9 ×10⁶ /M | 6.8 ×10⁵ /M | 2.1 ×10⁶ /M | 13 | Active | Active | CN(C)CCN1C(=O)c2ccc3c4c(c(NCCOCCN5CCOCC5)cc(c24)C1=O)C(=O)N(CCN(C)C)C3=O
10 | 5000 | 2910 | 2520 | – | – | – | – | – | – | – | – | CN(C)CCN1C(=O)c2ccc3c4c(c(NCCOCCOCCN5CCCC5)cc(c24)C1=O)C(=O)N(CCN(C)C)C3=O
11 | 9800 | 6870 | 2780 | – | – | – | – | – | – | – | – | CN(C)CCN1C(=O)c2ccc3c4c(c(NCCOCCOCCN5CCN(C)CC5)cc(c24)C1=O)C(=O)N(CCN(C)C)C3=O
12 | 5930 | 2830 | 1480 | 4.8 ×10⁴ /M | 28 | 5.4 ×10⁵ /M | 2.3 ×10⁴ /M | 4.5 ×10⁵ /M | 11 | Active | Active | CN(C)CCN1C(=O)c2ccc3c4c(c(NCCOCCOCCN5CCOCC5)cc(c24)C1=O)C(=O)N(CCN(C)C)C3=O
